Test results: US8962842B2, “2-pyridone antimicrobial compositions” (priority 2010, dated 2015)
Read-outs that look alike come from different tables or passages of the source.

Experiments:
[1] = molecular target: T1, human topoisomerase I (Homo sapiens, UniProt P11387); assay: Inhibition of topoisomerases activity in vitro, Topogen protocol TG1015 (Table 7); assay type: biochemical; settings: read-out: IC50 hTopo I Assay
T1 construct: purchased Topogen Inc., Port Orange, USA TG1015
T1 sequence (P11387 1-765): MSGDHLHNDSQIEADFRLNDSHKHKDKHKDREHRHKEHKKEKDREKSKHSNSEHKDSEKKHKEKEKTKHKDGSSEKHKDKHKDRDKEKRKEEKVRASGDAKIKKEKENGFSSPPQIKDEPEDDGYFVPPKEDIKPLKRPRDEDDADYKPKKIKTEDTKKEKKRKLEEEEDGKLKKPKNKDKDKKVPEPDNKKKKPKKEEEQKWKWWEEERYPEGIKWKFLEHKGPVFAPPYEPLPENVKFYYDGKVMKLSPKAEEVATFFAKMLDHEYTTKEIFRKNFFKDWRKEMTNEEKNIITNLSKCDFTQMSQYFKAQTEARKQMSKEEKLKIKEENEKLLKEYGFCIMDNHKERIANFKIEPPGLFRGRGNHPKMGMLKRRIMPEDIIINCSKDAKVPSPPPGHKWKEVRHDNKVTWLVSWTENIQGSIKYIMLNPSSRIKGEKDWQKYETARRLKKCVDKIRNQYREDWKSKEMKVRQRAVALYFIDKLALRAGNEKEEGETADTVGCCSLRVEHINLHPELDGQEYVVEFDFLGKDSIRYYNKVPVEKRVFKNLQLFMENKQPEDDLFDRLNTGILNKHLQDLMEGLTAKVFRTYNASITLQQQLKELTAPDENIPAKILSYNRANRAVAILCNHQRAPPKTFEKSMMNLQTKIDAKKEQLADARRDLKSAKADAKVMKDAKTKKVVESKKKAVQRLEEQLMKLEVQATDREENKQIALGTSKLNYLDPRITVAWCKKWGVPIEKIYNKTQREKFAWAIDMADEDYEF

[2] = test system: Bacterial strains injected into thigh muscles; assay type: in vivo, mice
[3] = test system: Escherichia coli (6 strains); assay: MIC range, broader panel of Quotient Bioresearch strains (Table 4); assay type: cell-based; settings: for MIC50: read-out: MIC Range Median, Escherichia coli (6 strains)
[4] = test system: Klebsiella pneumonia (4 strains); assay: as above; assay type: cell-based; settings: Klebsiella pneumoniae; for MIC50: read-out: MIC Range Median, Klebsiella pneumonia (4 strains)
[5] = test system: Pseudomonas aeruginosa (12 strains); assay: as above; assay type: cell-based; settings: for MIC50: read-out: MIC Range Median, Pseudomonas aeruginosa (12 strains)
[6] = test system: Burkholderia cepacia (5 strains); assay: as above; assay type: cell-based; settings: for MIC50: read-out: MIC Range Median, Burkholderia cepacia (5 strains)
[7] = test system: Haemophilus influenza (5 strains); assay: as above; assay type: cell-based, Haemophilus influenzae; settings: for MIC50: 16 h, Median of the strain panel
[8] = test system: Acinetobacter baumannii (12 strains); assay: as above; assay type: cell-based; settings: for MIC50: read-out: MIC Range Median, Acinetobacter baumannii (12 strains)
[9] = test system: Acinetobacter baumannii, quinolone-resistant strains (Quotient Bioresearch catalogue); assay: MIC against pathogens resistant against quinolones (Table 5); assay type: cell-based; settings: Acinetobacter baumannii, GN54
[10] = molecular target: bacterial gyrase (Escherichia coli, UniProt P0AES4+P0AES6); assay: Inhibition of topoisomerases activity in vitro, Topogen protocol TG1003 (Table 7); assay type: biochemical
[11] = molecular target: bacterial topoisomerase IV (Escherichia coli, UniProt P0AFI2+P20083); assay: Inhibition of topoisomerases activity in vitro, Topogen protocol TG1007 (Table 7); assay type: biochemical
[12] = Metabolic stability in liver microsomes +/- S9 fraction (Table 8); assay type: in vitro ADME; settings: 1 μM
Experimental: Metabolic stability of a select number of examples was tested in liver microsomes+/−addition of S9 fraction as described by Kuhnz, W. and Gieschen, H. (1998), Drug Metab. Dispos., 1120-1127. Test concentration was 1 μM and HPLC/MS-MS was used for detection.

[13] = physchem; assay type: physicochemical; settings: thermodynamic from solid
Experimental: The solutions were incubated at room temperature for 24 hours before quantification by HPLC detection. Aqueous solubility was evaluated in simulated gastric fluid (SGF), simulated intestinal fluid (SIF) and phosphate buffer saline (PBS) pH 7.4. Aqueous solubility is expressed in Table 11 as mean solubility in μM.

[14] = test system: Staphylococcus aureus (16 strains); assay: MIC range, broader panel of Quotient Bioresearch strains (Table 3); settings: for MIC50: read-out: MIC Range Median, Staphylococcus aureus (16 strains)
[15] = test system: Enterococcus faecalis (5 strains); assay: as above; settings: for MIC50: read-out: MIC Range Median, Enterococcus faecalis (5 strains)
[16] = test system: Enterococcus faecium (3 strains); assay: as above; settings: for MIC: read-out: MIC Range Low, Enterococcus faecium (3 strains); for MIC50: read-out: MIC Range Median, Enterococcus faecium (3 strains)
[17] = test system: Streptococcus pneumonia (5 strains); assay: as above; settings: Streptococcus pneumoniae; for MIC: read-out: MIC Range Low, Streptococcus pneumonia (5 strains); for MIC50: read-out: MIC Range Median, Streptococcus pneumonia (5 strains)
[18] = test system: Streptococcus pyogenes (4 strains); assay: as above; settings: for MIC50: read-out: MIC Range Median, Streptococcus pyogenes (4 strains)
[19] = test system: Group C Streptococcus (4 strains); assay: as above; settings: for MIC50: read-out: MIC Range Median, Group C Streptococcus (4 strains)
[20] = read-out: MIC Range High, Escherichia coli (6 strains)
[21] = read-out: MIC Range Low, Escherichia coli (6 strains)
[22] = read-out: MIC Range High, Klebsiella pneumonia (4 strains)
[23] = read-out: MIC Range Low, Klebsiella pneumonia (4 strains)
[24] = read-out: MIC Range High, Pseudomonas aeruginosa (12 strains)
[25] = read-out: MIC Range Low, Pseudomonas aeruginosa (12 strains)
[26] = read-out: MIC Range High, Burkholderia cepacia (5 strains)
[27] = read-out: MIC Range Low, Burkholderia cepacia (5 strains)
[28] = High of the strain panel, read-out: MIC Range High, Haemophilus influenza (5 strains)
[29] = Low of the strain panel, read-out: MIC Range Low, Haemophilus influenza (5 strains)
[30] = read-out: MIC Range High, Acinetobacter baumannii (12 strains)
[31] = read-out: MIC Range Low, Acinetobacter baumannii (12 strains)
[32] = read-out: MIC Range Low, Staphylococcus aureus (16 strains)
[33] = read-out: MIC Range High, Enterococcus faecalis (5 strains)
[34] = read-out: MIC Range Low, Enterococcus faecalis (5 strains)
[35] = read-out: MIC Range High, Streptococcus pyogenes (4 strains)
[36] = read-out: MIC Range Low, Streptococcus pyogenes (4 strains)
[37] = read-out: MIC Range High, Group C Streptococcus (4 strains)
[38] = read-out: MIC Range Low, Group C Streptococcus (4 strains)

bacterial topoisomerase IV, sequence (P20083 whole entry): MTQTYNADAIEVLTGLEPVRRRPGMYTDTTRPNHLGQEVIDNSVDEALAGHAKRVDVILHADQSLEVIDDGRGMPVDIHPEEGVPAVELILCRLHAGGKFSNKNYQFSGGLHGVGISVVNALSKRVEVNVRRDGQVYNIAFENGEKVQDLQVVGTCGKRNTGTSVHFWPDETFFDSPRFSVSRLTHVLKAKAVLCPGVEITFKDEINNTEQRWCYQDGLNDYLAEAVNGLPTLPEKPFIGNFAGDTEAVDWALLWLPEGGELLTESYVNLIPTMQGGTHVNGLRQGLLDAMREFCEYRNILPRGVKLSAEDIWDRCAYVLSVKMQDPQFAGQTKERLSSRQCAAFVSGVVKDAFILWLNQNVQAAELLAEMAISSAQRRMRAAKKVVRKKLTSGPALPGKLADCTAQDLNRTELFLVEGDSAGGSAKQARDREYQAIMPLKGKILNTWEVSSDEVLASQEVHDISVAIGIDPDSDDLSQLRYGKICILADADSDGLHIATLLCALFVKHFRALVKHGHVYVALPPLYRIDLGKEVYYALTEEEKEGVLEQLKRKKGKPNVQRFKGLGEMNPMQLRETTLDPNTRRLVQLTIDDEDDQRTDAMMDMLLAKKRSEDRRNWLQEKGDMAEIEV
bacterial topoisomerase IV, sequence (P0AFI2 whole entry): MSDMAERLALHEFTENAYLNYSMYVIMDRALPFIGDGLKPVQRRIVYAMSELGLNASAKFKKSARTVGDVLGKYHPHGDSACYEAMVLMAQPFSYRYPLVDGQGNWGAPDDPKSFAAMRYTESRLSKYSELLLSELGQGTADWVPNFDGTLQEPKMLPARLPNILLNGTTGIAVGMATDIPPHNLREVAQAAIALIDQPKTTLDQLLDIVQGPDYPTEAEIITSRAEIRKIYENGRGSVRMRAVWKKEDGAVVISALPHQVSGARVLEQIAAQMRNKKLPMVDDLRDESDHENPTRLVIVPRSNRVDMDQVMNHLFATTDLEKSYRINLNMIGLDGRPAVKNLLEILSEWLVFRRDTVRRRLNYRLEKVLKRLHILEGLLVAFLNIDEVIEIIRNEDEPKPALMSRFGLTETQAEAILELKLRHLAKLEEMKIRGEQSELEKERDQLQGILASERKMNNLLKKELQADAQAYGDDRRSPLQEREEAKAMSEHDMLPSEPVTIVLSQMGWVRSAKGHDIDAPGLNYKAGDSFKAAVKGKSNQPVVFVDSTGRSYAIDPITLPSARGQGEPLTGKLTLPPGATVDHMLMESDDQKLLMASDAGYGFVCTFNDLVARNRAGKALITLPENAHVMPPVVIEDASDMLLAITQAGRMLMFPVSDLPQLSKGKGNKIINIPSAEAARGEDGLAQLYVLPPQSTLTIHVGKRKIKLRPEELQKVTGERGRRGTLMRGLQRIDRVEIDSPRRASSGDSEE
bacterial gyrase, sequence (P0AES4 whole entry, one chain of several): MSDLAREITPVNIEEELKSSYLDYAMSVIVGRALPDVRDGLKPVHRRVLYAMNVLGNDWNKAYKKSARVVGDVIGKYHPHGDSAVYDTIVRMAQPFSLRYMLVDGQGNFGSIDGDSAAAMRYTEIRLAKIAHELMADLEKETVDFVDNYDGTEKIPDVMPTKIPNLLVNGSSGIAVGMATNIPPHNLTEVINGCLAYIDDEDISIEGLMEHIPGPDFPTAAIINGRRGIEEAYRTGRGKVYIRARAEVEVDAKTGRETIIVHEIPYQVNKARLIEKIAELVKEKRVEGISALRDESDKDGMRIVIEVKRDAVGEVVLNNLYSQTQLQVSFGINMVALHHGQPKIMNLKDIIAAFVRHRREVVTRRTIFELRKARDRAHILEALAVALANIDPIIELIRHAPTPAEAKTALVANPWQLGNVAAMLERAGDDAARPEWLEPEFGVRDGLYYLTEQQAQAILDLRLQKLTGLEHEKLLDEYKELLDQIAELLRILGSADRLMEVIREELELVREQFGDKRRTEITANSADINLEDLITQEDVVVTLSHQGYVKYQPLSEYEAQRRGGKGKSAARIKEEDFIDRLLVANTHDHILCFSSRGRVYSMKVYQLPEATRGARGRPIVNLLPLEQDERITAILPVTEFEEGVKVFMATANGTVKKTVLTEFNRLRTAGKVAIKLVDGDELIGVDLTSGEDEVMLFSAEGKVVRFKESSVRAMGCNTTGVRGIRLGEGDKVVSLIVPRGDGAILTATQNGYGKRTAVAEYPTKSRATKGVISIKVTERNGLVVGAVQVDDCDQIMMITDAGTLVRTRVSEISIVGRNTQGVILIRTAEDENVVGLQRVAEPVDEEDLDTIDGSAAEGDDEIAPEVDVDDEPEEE

Question: With `O=C(O)c1cn(C2CC2)c2cc(N3CCNCC3)c(F)cc2c1=O` [Ciprofloxacin, reference compound] as the compound, how does the IC50 [1] read?
Answer: > 150 µM

Question: And the “Log reduction (LgR) from vehicle control (CFU/g)” value ([2]; MRSA ATCC 43300, mouse thigh, 20 mg/kg i.v. TDS)?
Answer: 2.36

Question: Which results are given for `Cc1c(-c2ccc(N)nc2)ccn2c(=O)c(C(=O)[O-])cc(C3CC3)c12.[K+]` [Example 21 K salt, potassium 8-(6-amino-pyridin-3-yl)-1-cyclopropyl-9-methyl-4-oxo-4H-quinolizine-3-carboxylate]?
Answer: MIC [3, 20]: 32 µg/mL; MIC [3, 21]: ≤ 0.015 µg/mL; MIC50 [3]: 16 µg/mL; MIC [4, 22]: 32 µg/mL; MIC [4, 23]: 0.06 µg/mL; MIC50 [4]: 9 µg/mL; MIC [5, 24]: 32 µg/mL; MIC [5, 25]: 0.5 µg/mL; MIC50 [5]: 8 µg/mL; MIC [6, 26]: 0.25 µg/mL; MIC [6, 27]: 0.12 µg/mL; MIC50 [6]: 0.25 µg/mL; MIC50 [7]: ≤ 0.015 µg/mL; MIC [7, 28]: ≤ 0.015 µg/mL; MIC [7, 29]: ≤ 0.015 µg/mL; MIC [8, 30]: 16 µg/mL; MIC [8, 31]: 0.03 µg/mL; MIC50 [8]: 4 µg/mL; MIC [9]: 4 µg/mL; IC50 [10]: ≤ 1.49 µM; IC50 [11]: ≤ 2.33 µM; Mean Parent Remaining ([12]; Liver microsomes + S9, human): 93%; Mean Parent Remaining ([12]; Liver microsomes + S9, mouse): 97%; Mean Parent Remaining ([12]; Liver microsomes, human): 85%; Mean Parent Remaining ([12]; Liver microsomes, mouse): 87%; Log reduction (LgR) from vehicle control (CFU/g) ([2]; E. coli ATCC 25922, mouse thigh, 30 mg/kg TDS p.o.): 3.13; Log reduction (LgR) from vehicle control (CFU/g) ([2]; MRSA ATCC 43300, mouse thigh, 30 mg/kg TDS p.o.): 4.93; solubility at 24 h ([13]; fassgf or other biorelevant): 200 µM; solubility at 24 h ([13]; pH 7.4, aqueous buffer): 200 µM; solubility at 24 h ([13]; simulated gastric fluid): 200 µM; MIC [14, 32]: ≤ 0.015 µg/mL; MIC50 [14]: 0.25 µg/mL; MIC [15, 33]: 2 µg/mL; MIC [15, 34]: 0.03 µg/mL; MIC50 [15]: 0.12 µg/mL; MIC [16]: 0.25 µg/mL; MIC50 [16]: 1 µg/mL; MIC [17]: 0.06 µg/mL; MIC50 [17]: 0.06 µg/mL; MIC [18, 35]: 0.12 µg/mL; MIC [18, 36]: 0.06 µg/mL; MIC50 [18]: 0.06 µg/mL; MIC [19, 37]: 0.06 µg/mL; MIC [19, 38]: 0.03 µg/mL; MIC50 [19]: 0.03 µg/mL

Question: For `Cc1c(-c2cc(F)c(N)cc2F)ccn2c(=O)c(C(=O)[O-])cc(C3CC3)c12.[K+]` [Example 28 K salt, potassium 8-(4-amino-2,5-difluoro-phenyl)-1-cyclopropyl-9-methyl-4-oxo-4H-quinolizine-3-carboxylate], which MIC [3, 20] is on record?
Answer: 32 µg/mL

Question: And the MIC [3, 21]?
Answer: 0.03 µg/mL

Question: What about the MIC50 [3] of the same compound?
Answer: 16 µg/mL

Question: And the MIC [4, 22]?
Answer: > 32 µg/mL

Question: What about the MIC [4, 23] of the same compound?
Answer: 0.12 µg/mL

Question: What about the MIC50 [4] of the same compound?
Answer: 18 µg/mL

Question: What about the MIC [5, 24] of the same compound?
Answer: > 32 µg/mL

Question: And the MIC [5, 25]?
Answer: 1 µg/mL

Question: What about the MIC50 [5] of the same compound?
Answer: 6 µg/mL

Question: And the MIC [6, 26]?
Answer: 0.5 µg/mL

Question: What about the MIC [6, 27] of the same compound?
Answer: 0.12 µg/mL

Question: And the MIC50 [6]?
Answer: 0.25 µg/mL

Question: What about the MIC50 [7] of the same compound?
Answer: ≤ 0.015 µg/mL

Question: And the MIC [7, 28]?
Answer: ≤ 0.015 µg/mL

Question: What about the MIC [7, 29] of the same compound?
Answer: ≤ 0.015 µg/mL

Question: What about the MIC [8, 30] of the same compound?
Answer: 16 µg/mL

Question: What about the MIC [8, 31] of the same compound?
Answer: 0.06 µg/mL

Question: What about the MIC50 [8] of the same compound?
Answer: 8 µg/mL

Question: And the MIC [9]?
Answer: 2 µg/mL

Question: What about the IC50 [10] of the same compound?
Answer: 0.68 µM

Question: What about the IC50 [11] of the same compound?
Answer: ≤ 8.45 µM

Question: What about the IC50 [1] of the same compound?
Answer: 135 µM

Question: And the “Mean Parent Remaining” value ([12]; Liver microsomes + S9, human)?
Answer: 93%

Question: And the “Mean Parent Remaining” value ([12]; Liver microsomes + S9, mouse)?
Answer: 48%

Question: And the “Mean Parent Remaining” value ([12]; Liver microsomes, human)?
Answer: 97%

Question: What about the “Mean Parent Remaining” value ([12]; Liver microsomes, mouse) of the same compound?
Answer: 30%

Question: What about the solubility at 24 h ([13]; fassgf or other biorelevant) of the same compound?
Answer: 153 µM

Question: What about the solubility at 24 h ([13]; pH 7.4, aqueous buffer) of the same compound?
Answer: 6 µM

Question: And the solubility at 24 h ([13]; simulated gastric fluid)?
Answer: 12 µM

Question: What about the MIC ([14]; read-out: MIC Range High, Staphylococcus aureus (16 strains)) of the same compound?
Answer: 0.12 µg/mL

Question: And the MIC [14, 32]?
Answer: ≤ 0.015 µg/mL

Question: What about the MIC50 [14] of the same compound?
Answer: 0.06 µg/mL

Question: What about the MIC [15, 33] of the same compound?
Answer: 0.5 µg/mL

Question: And the MIC [15, 34]?
Answer: ≤ 0.015 µg/mL

Question: What about the MIC50 [15] of the same compound?
Answer: 0.25 µg/mL

Question: And the MIC [16]?
Answer: 0.12 µg/mL

Question: What about the MIC50 [16] of the same compound?
Answer: 0.25 µg/mL

Question: And the MIC [17]?
Answer: 0.03 µg/mL

Question: What about the MIC50 [17] of the same compound?
Answer: 0.06 µg/mL

Question: And the MIC [18, 35]?
Answer: 0.06 µg/mL

Question: What about the MIC [18, 36] of the same compound?
Answer: 0.03 µg/mL

Question: And the MIC50 [18]?
Answer: 0.06 µg/mL

Question: And the MIC [19, 37]?
Answer: 0.06 µg/mL

Question: What about the MIC [19, 38] of the same compound?
Answer: 0.03 µg/mL

Question: And the MIC50 [19]?
Answer: 0.045 µg/mL
